Reference: patent US7723358B2, “Aroyl-O-piperidine derivatives for the treatment of diabetes-related problems” (Merck Patent GmbH, priority 2004, dated 2010)

Target: T1, microsomal triglyceride transfer protein (MTP) (Mesocricetus auratus, UniProt P55158)
T1 construct: The supernatant comprising the soluble MTP is dialysed against Tris/HCl 150 mM; from tissue; host or cells: golden hamster liver microsomes, deoxycholate-solubilised supernatant, dialysed
T1 sequence (P55158 19-895): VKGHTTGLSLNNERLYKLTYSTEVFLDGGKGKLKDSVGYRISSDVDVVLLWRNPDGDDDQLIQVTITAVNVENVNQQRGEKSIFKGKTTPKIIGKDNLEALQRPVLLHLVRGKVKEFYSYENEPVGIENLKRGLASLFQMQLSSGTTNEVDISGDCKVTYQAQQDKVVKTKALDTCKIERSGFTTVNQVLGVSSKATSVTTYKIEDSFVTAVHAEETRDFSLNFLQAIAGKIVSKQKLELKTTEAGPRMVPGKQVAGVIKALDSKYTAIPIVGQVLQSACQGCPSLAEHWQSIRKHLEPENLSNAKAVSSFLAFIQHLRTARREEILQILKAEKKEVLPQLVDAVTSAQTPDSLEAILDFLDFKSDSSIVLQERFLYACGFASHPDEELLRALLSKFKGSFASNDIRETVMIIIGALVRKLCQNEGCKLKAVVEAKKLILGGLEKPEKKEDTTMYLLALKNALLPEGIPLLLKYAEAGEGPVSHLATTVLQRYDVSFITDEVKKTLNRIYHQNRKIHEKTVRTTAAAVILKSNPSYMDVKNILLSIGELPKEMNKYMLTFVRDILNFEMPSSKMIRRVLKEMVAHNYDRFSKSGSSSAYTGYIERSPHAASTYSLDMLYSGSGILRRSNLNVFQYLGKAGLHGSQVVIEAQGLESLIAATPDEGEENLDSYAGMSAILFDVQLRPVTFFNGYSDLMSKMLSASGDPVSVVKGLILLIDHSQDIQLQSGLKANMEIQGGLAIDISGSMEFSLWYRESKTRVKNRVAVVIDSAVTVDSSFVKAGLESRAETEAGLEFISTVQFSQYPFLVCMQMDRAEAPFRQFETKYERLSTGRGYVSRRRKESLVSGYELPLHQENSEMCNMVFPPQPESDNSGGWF
Experiment: Inhibition of MTP activity: transfer of [3H]-triolein from donor liposomes to biotinylated LDL, SPA
Type: biochemical
Conditions: MTP from golden hamster liver; incubation 18-24 hours at 37° C.; read-out: IC50, concentration that allows a 50% inhibition of MTP
Method: Analysis of the Inhibition of MTP Activity
The inhibition of the activity of microsomal triglyceride transfer protein (MTP) was tested by using the following operating protocol.
The inhibition of MTP activity with a compound can be quantified by observing the inhibition of the transfer of a labelled triglyceride, from a donor particle to an acceptor particle, in the presence of MTP. The procedure for the preparation of MTP is based on the method by Wetterau and Zilversmit (Biochem. Biophys. Acta (1986) 875, 610). A few grams of golden hamster liver are taken and then rinsed several times in a 250 mM sucrose solution at 0° C. All the following steps proceed at +4° C. A homogenate at a concentration of 50% in 250 mM sucrose is prepared using a Teflon mill and then centrifuged for 10 minutes at 10 000×g at +4° C. The supernatant is then centrifuged at 105 000×g for 75 minutes at +4° C. The supernatant is discarded and the microsomal pellet is taken up in 3 ml (per g of starting liver) of Tris/HCl 150 mM pH 8.0. 1-ml aliquot fractions are stored at −80° C. until the time of use.
After thawing a fraction of microsomes (1 ml), 12 ml of refrigerated Tris/HCl 50 mM, KCl 50 mM, MgCl2 5 mM pH 7.4 buffers and 1.2 ml of deoxycholate (0.54% in water) are added. After incubation for 30 minutes at +4° C. with gentle agitation, the suspension is centrifuged at 105 000×g for 75 minutes. The supernatant comprising the soluble MTP is dialysed against Tris/HCl 150 mM, NaCl 40 mM, EDTA 1 mM, 0.02% sodium azide pH 7.4 buffer (5 times one litre over 2-3 days). The MTP is stored at +4° C., is stable for at least 30 days and is used in unmodified form in the test.
The donor particles (liposomes) are prepared from 208 μl of L-phosphatidylcholine at a concentration of 10 mg/ml in chloroform, and 480 μl of [3H]-triolein at a concentration of 0.5 mCi/ml in toluene. After stirring, the solution is evaporated under nitrogen, taken up in 6 ml of Tris/HCl 50 mM, KCl 50 mM, MgCl2 5 mM pH 7.4 buffer and incubated in an ultrasound bath for 30 minutes at room temperature. The liposomes are stored at +4° C. and sonicated again for 10 minutes before each use.
The acceptor particles are biotinylated low density lipoproteins (LDL-biot). These particles are supplied by the company Amersham.
The reaction mixture is prepared in untreated ½ well white plates (Corning Costar) by addition, in the following order, of: 5 μl of HEPES 50 mM, NaCl 150 mM, BSA 0.1% (w/v), 0.05% sodium azide (w/v), pH 7.4 buffer; 5 μl of liposome; 5 μl of LDL-biot; 5 μl of test products in DMSO; 5 μl of MTP. After incubation for 18-24 hours at 37° C., the reaction is stopped by adding 100 μl of Amersham SPA (Scintillation Proximity Assay) beads coupled to streptavidin, and the radioactivity is counted using a Top Count (Packard) machine at least one hour later. The inhibition of the transfer of the triglycerides with a compound is reflected by a reduction in the transferred radioactivity.
The results are expressed in terms of the IC50, i.e. the concentration that allows a 50% inhibition of MTP.

**Q.** How did the IC50 turn out when COc1cc(NC(=O)N2CCC(Oc3cccc(NC(=O)c4cccc(C)c4-c4ccc(OC(F)(F)F)cc4)c3)CC2)cc(OC)c1OC [Example 38, 4-[3-[[[6-methyl-4′-(trifluoromethoxy)[1,1′-biphenyl]-2-yl]carbonyl]amino]phenoxy]-N-(3,4,5-trimethoxyphenyl)-1-piperidine-carboxamide] was run?
**A.** 422 nM

**Q.** How did the IC50 turn out when CSc1ccc(NC(=O)N2CCC(Oc3cccc(NC(=O)c4cccc(C)c4-c4ccc(OC(F)(F)F)cc4)c3)CC2)cc1 [Example 39, N-[4-(methylthio)phenyl]-4-[3-[[[6-methyl-4′-(trifluoromethoxy)[1,1′-biphenyl]-2-yl]-carbonyl]amino]phenoxy]-1-piperidine-carboxamide] was run?
**A.** 85.7 nM

**Q.** Which IC50 does the source give for COC(=O)c1cccc(NC(=O)N2CCC(Oc3cccc(NC(=O)c4cccc(C)c4-c4ccc(OC(F)(F)F)cc4)c3)CC2)c1 [Example 43, methyl 3-[[[4-[3-[[[6-methyl-4′-(trif1uoro-methoxy)[1,1′-biphenyl]-2-yl]carbonyl]-amino]phenoxy]-1-piperidinyl]carbonyl]-amino]benzoate] here?
**A.** 201 nM

**Q.** Which IC50 does the source give for CCOC(=O)CCCCCNC(=O)N1CCC(Oc2cccc(NC(=O)c3cccc(C)c3-c3ccc(OC(F)(F)F)cc3)c2)CC1 [Example 45, ethyl 6-[[[4-[3-[[[6-methyl-4′-(trifluorometh-oxy)[1,1′-biphenyl]-2-yl]carbonyl]amino]-phenoxy]-1-piperidinyl]carbonyl]amino]-hexanoate] here?
**A.** 779 nM

**Q.** How did the IC50 turn out when Cc1cccc(C(=O)Nc2cccc(OC3CCN(C(=O)Nc4ccccc4OC(F)(F)F)CC3)c2)c1-c1ccc(OC(F)(F)F)cc1 [Example 47, 4-[3-[[[6-methyl-4′-(trifluoromethoxy)[1,1′-biphenyl]-2-yl]carbonyl]amino]phenoxy]-N-(2-(trifluoromethoxy)phenyl]-1-piperi-dinecarboxamide] was run?
**A.** 158 nM

**Q.** With COC(=O)[C@@H](NC(=O)N1CCC(Oc2cccc(NC(=O)c3cccc(C)c3-c3ccc(OC(F)(F)F)cc3)c2)CC1)C(C)C [Example 49, methyl N-[[4-[3-[[[6-methyl-4′-(trifluoro-methoxy)[1,1′-biphenyl]-2-yl]carbonyl]-amino]phenoxy]-1-piperidinyl]carbonyl]-L-valinate] as the compound, how does the IC50 read?
**A.** 551 nM

**Q.** Cc1cccc(C(=O)Nc2cccc(OC3CCN(C(=O)Nc4ccc(N(C)C)cc4)CC3)c2)c1-c1ccc(OC(F)(F)F)cc1 [Example 51, N-[4-(dimethylamino)phenyl]-4-[3-[[[6-methyl-4′-(trifluoromethoxy)[1,1′-biphenyl]-2-yl]carbonyl]amino]phenoxy]-1-piperidinecarboxamide] was tested. Which IC50 did it give?
**A.** 111 nM

**Q.** With Cc1cccc(C(=O)Nc2cccc(OC3CCN(C(=O)NC4CCCC4)CC3)c2)c1-c1ccc(OC(F)(F)F)cc1 [Example 57, N-cyclopentyl-4-[3-[[[6-methyl-4′-(trifluoro-methoxy)[1,1′-biphenyl]-2-yl]carbonyl]-amino]phenoxy]-1-piperidinecarboxamide] as the compound, how does the IC50 read?
**A.** 187 nM

**Q.** How did the IC50 turn out when Cc1cccc(C(=O)Nc2cccc(OC3CCN(Cc4ccccc4)CC3)c2)c1-c1ccc(OC(F)(F)F)cc1 [Example 58, [1,1′-biphenyl]-6-methyl-N-[3-[[1-(phenyl-methyl)-4-piperidinyl]oxy]phenyl]-4′-(trifluoromethoxy)-2-carboxamide] was run?
**A.** 74.1 nM

**Q.** For Cc1cccc(C(=O)Nc2cccc(OC3CCN(Cc4cccs4)CC3)c2)c1-c1ccc(OC(F)(F)F)cc1 [Example 59, [1,1′-biphenyl]-6-methyl-N-[3-[[1-(2-thienylmethyl)-4-piperidinyl]oxy]phenyl]-4′-(trifluoromethoxy)-2-carboxamide], which IC50 is on record?
**A.** 186 nM

**Q.** With Cc1cccc(C(=O)Nc2cccc(OC3CCN(Cc4cc5ccccc5o4)CC3)c2)c1-c1ccc(OC(F)(F)F)cc1 [Example 60, N-[3-[[1-(2-benzofuranylmethyl)-4-piperi-dinyl]oxy]phenyl]-6-methyl-4′-(trifluoro-methoxy)-[1,1′-biphenyl]-2-carboxamide] as the compound, how does the IC50 read?
**A.** 240 nM
